The test system of one test is Goto-Kakizaki (GK) rats. The test can be described thus: Acute combination treatment of insulin and an FBPase inhibitor in the Goto-Kakizaki rat (Example CC). Type of test: in vivo. The procedure: Male Goto-Kakizaki (GK) rats were purchased at 9 weeks of age from Charles River Japan, Inc. (Tokyo, Japan). The rats were maintained under standard vivarium conditions (24-26° C., 12-hour light cycle, 12-hour dark cycle) and received standard chow and water ad libitum. At 48 weeks of age, animals were divided into 4 groups (n=6/group) after an overnight fast. The treatment groups were control, Compound J, insulin, and combination of Compound J and insulin. […] Insulin (human recombinant insulin, Penfill N300, Novo Nordisk, Denmark) was subcutaneously injected at the dose of 1.5 U/kg. Blood glucose levels in tail vein samples were measured by means of a Glucoloader-F, an automatic glucose analyzer, (A&T Co., Ltd., Tokyo, Japan).

A further test has as its system Goto-Kakizaki rats. In words: Acute combination treatment of an alpha glucosidase inhibitor and an FBPase inhibitor in Goto-Kakizaki rats (Example EE). The class given is in vivo, rat. The procedure:
Goto-Kakizaki rats, an animal model of lean NIDDM, were purchased at 5 weeks of age from Charles River Japan, Inc. (Tokyo, Japan). The rats were maintained under standard vivarium conditions (24-26° C., 12-hour light cycle, 12-hour dark cycle) and received standard chow and water ad libitum. At 18 weeks of age, animals were divided into 4 groups (n=5/group). The treatment groups were control, Compound J, acarbose (Bayer, Japan), and the combination of Compound J and acarbose. All animals were given 1 g/kg of corn starch by oral gavage. […] Acarbose was administered orally at a dose of 1 mg/kg simultaneously with starch. Blood glucose levels in tail vein samples were measured by means of a Glucoloader-F, an automatic glucose analyzer, (A&T Co., Ltd., Tokyo, Japan).

These results are taken from US7563774B2, “Combination of FBPase inhibitors and antidiabetic agents useful for the treatment of diabetes” (Metabasis Therapeutics, Inc., priority 2000, dated 2009).

For the compound `CCOC(=O)[C@H](C)NP(=O)(N[C@@H](C)C(=O)OCC)c1ccc(-c2nc(N)sc2CC(C)C)o1` [Compound J, 2-Amino-5-isobutyl-4-{2-[5-(N,N′-bis((S)-1-ethoxycarbonyl)ethyl)phosphonamido]furanyl}thiazole], the plasma glucose lowering result with Goto-Kakizaki (GK) rats (GK rats, acute) is “progressively decreased plasma glucose”. Moreover, the “Plasma Glucose, % of before” value with Goto-Kakizaki (GK) rats (after 2 hour) is given as “(65.6 +/− 6.6) %”; in the test on Goto-Kakizaki (GK) rats (after 4 hours), “(51.0 +/− 2.7) %”; with Goto-Kakizaki (GK) rats (after 6 hours), “(22.6 +/− 6.7) %”; with Goto-Kakizaki (GK) rats (before (0 hour)), “(100.0 +/− 0.0) %”. Further, the “Plasma Glucose” value was found to be 106.3 ± 11.0 mg/dL in the test with Goto-Kakizaki (GK) rats (after 2 hour, Compound J 50 mg/kg p.o., insulin 1.5 U/kg s.c.); 79.6 ± 4.9 mg/dL with Goto-Kakizaki (GK) rats (after 4 hours); 35.4 ± 10.8 mg/dL in the test on Goto-Kakizaki (GK) rats (after 6 hours); 161.8 ± 6.6 mg/dL in the test with Goto-Kakizaki (GK) rats (before (0 hour)); 218.4 ± 19.9 mg/dL in the test on Goto-Kakizaki rats (0 min, Compound J 10 mg/kg p.o. at −60 min, acarbose 1 mg/kg p.o. with starch); 245.2 ± 29.9 mg/dL with Goto-Kakizaki rats (30 min after starch). Further, the “Plasma Glucose” value with Goto-Kakizaki rats (60 min after starch) stood at 251.0 ± 28.6 mg/dL; with Goto-Kakizaki rats (120 min after starch), 182.8 ± 18.0 mg/dL; in the test on Goto-Kakizaki rats (240 min after starch) it was 144.6 ± 9.8 mg/dL; in the test with Goto-Kakizaki rats (−60 min relative to starch 1 g/kg) it was 179.8 ± 15.2 mg/dL. Moreover, the “Plasma Glucose, relative value (% of pre-treatment value)” value with Goto-Kakizaki rats (0 min) is on record as “(121.8 +/− 8.0) %”; in the test on Goto-Kakizaki rats (30 min after starch) it was “(135.2 +/− 9.2) %”; in the test with Goto-Kakizaki rats (60 min after starch), “(138.5 +/− 6.2) %”; in the test with Goto-Kakizaki rats (120 min after starch), “(101.8 +/− 7.2) %”; with Goto-Kakizaki rats (240 min after starch) it was “(81.7 +/− 6.7) %”; in the test on Goto-Kakizaki rats (−60 min), “(100.0 +/− 0.0) %”.
